Laboratory results published in patent publication US11666559B2, “Spiro-lactam compounds, process and uses thereof” (UNIVERSIDADE DE COIMBRA, priority 2017, dated 2023).
“Also recorded” adds a separate entry of the source.

How the values were obtained:
HIV = experiment: Anti-HIV activity evaluation (HIV type not specified); type: cell-based; conditions: both CCR-tropic isolates and CXCR4-tropic isolates; concentration of 15.2 μM
Procedure: In an embodiment, TZM-bl cells (AIDS Research and Reference Reagent Program, National Institutes of Health, USA) were cultured in complete growth medium that consists of Dulbecco's minimal essential medium (DMEM) supplemented with 10% fetal bovine serum (FBS), 100 U/ml of penicillin-streptomycin (Gibco/Invitrogen, USA), 1 mM of sodium pyruvate (Gibco/Invitrogen, USA), 2 mM of L-glutamine (Gibco/Invitrogen, USA) and 1 mM of non-essential amino acids (Gibco/Invitrogen, USA).
In an embodiment, the primary isolates 93AOHDC249, 93AOHDC250, 01PTHDECJN and 03PTHCC9, used in this study were previously isolated, titrated and characterized for co-receptor usage. HIV reference strain SG3.1 was obtained by transfection of HEK293T cells with pSG3.1 (HIV-1) plasmid using Fugene 6 reagent (Roche, Switzerland) according to manufacturer's instructions.
In an embodiment, the 50% tissue culture infectious dose (TCID50) of the virus was determined in a single-round viral infectivity assay using a luciferase reporter gene assay in TZM-bl cells and calculated using the statistical method of Reed and Muench^27.
In an embodiment, the antiviral activity of the compounds was determined in a single-round assay with TZM-bl cells as previously described ^26. […] After 48 h of infection, luciferase expression was quantified with the One-Glow luciferase assay substrate reagent (Promega, USA) according to manufacturer's instructions. […] After an incubation of 3 minutes at room temperature to allow complete cell lysis luminescence was measured in Tecan Infinite M200. Background luminescence was measured by using control wells that contained only target cells and GM. […]
In an embodiment, dose-response curves were estimated from the percentage of inhibition of infection (y-axis) against logo of concentration of each compound (x-axis) using the sigmoidal dose-response equation (variable slope) in GraphPad Prism version 5.00 for Windows (GraphPad Software, San Diego Calif. USA, www.graphpad.com). IC50 and IC90 values were determined from this curve. […]

[1] = Acute toxicity assay in Wistar rats
Procedure: Wistar rats (n=5) were inoculated IP with different doses of BSS-593 and effects on liver, renal and lipid homeostasis were assessed by dosing different biochemical parameters 48 h after inoculation. ALT, AST and LDH were determined as markers of liver function and serum level of creatinine were determined as marker of renal function. Serum levels of total cholesterol, low-density cholesterol (LDL), high-density cholesterol (HDL) and triglycerides were measured to evaluate the effect of the drugs on lipid homeostasis. Results were expressed as the means with their standard errors and were compared using a one-factorial ANOVA test, followed by a Bonferroni's multi-comparison post hoc test.
In an embodiment, the acute toxicity assay of spiro-β-lactam BSS-593 was carried out. […] Control animals were administered with sterile saline (1 mL/kg; n=4). […] After blood collection animals were necropsied to identify macroscopic signs of organ injury.
In an embodiment, an acute toxicity assay was carried out. Female Wistar (220-250 g) rats were randomly divided in 4 groups. […] A fourth group of control animals was administered with sterile saline (B. Braun, Portugal) (1 mL/kg; n=4). Animals received the test drug via the intraperitoneal route and were monitored regularly for visible stress or toxicity signs such as death. All rats were anesthetized with sodium pentobarbital (Eutasil, 60 mg/kg i.p; Sanofi VeterinAria, Alges, Portugal) prior to intracardiac puncture for blood collection. […] Blood was collected into a serum SST gel and clot activator tube (Becton Dickinson, Le Pont de Claix, France) and was centrifuged (1000×g for 10 min at room temperature) to separate serum. Serum was analyzed within 24 h on a laboratory bench Clinical Chemistry Analyser c111 (Roche Diagnostics, Lda). Uver injury was assessed by measuring the rise in the serum levels of alanine aminotransferase (ALT, a specific marker for hepatic parenchymal injury), aspartate aminotransferase (AST, a nonspecific marker for hepatic injury) and lactate dehydrogenase (LDH, a marker of nonspecific cellular injury). Serum levels of creatinine was determined as marker of renal injury. Serum levels of total cholesterol, low-density cholesterol (LDL), high-density cholesterol (HDL) and triglycerides were also measured to evaluate the effect of the drugs on lipid homeostasis. Results were expressed as the means with their standard errors and were compared using a one-factorial ANOVA test, followed by a Bonferroni's multi-comparison post hoc test. A P value <0.05 was considered to be statistically significant.

[2] = single intraperitoneal dose 0.1, 1 or 10 mg/kg, 48 h

| SMILES | inhibition of the replication (HIV) | time to anaesthesia (sodium pentobarbital) between treated and control animals ([1]; intraperitoneal 0.1, 1 or 10 mg/kg, reflects apparent CNS effects) | abnormal behavior or signs of toxicity [1, 2] | biochemical markers of liver function, kidney function and general cell injury (ALT, AST, creatinine, LDH in the blood) vs control animals [1, 2] | blood lipid profiles (cholesterol, LDL, HDL and TG) [1, 2] | macroscopic signs of organ injury at necropsy ([1]; single intraperitoneal dose 0.1, 1 or 10 mg/kg, after blood collection) | animal survival rate ([1]; single intraperitoneal dose 0.1, 1 or 10 mg/kg, test period of 48 h) |
| --- | --- | --- | --- | --- | --- | --- | --- |
| CC1(C)S[C@H]2N(C(=O)[C@]23CC=C(C(=O)OCc2ccccc2)[C@@H]3C(=O)c2ccccc2)[C@H]1C(=O)OC(c1ccccc1)c1ccccc1 [BSS-730A] | about 100% | – | – | – | – | – | – |
| COC(=O)C1=C[C@@]2(N=N1)C(=O)N1[C@@H](C(=O)O)C(C)(C)S[C@@H]12 [BSS-593, (2,3′R,5R)-5′-(methoxycarbonyl)-3,3-dimethyl-7-oxo-4-thia-1-azaspiro[bicyclo[3.2.0]heptane-6,3′-pyrazole]-2-carboxylic acid] | – | no significant differences | No abnormal behavior or signs of abnormal toxicity were noticed | no significant differences; also recorded: does not induce liver and renal injury | no changes; also recorded: does not alter lipid metabolism | No significant differences | 100% |
